From patent US8785399B2, “Antibacterial peptides” (Spiderbiotech S.R.A., priority 2008, dated 2014)
Converted amounts (≈) assume the structure as drawn. Positions of bridges follow the written chain, without caps; N, C: chain ends. Non-standard residues stand in square brackets, D forms with d. Residues, ends and D or L forms follow the SMILES beside them. Chains are numbered I, II in the order given. Aoc = NCCCCCCCC(=O)O; βAla = NCCC(=O)O

Columns and labels:
[1] = test system: E. coli ATCC 25922; assay: MIC by broth microdilution, E. coli reference strain; format: cell-based, Escherichia coli
Description: (§1) Determination of MIC. MICs were determined in MHB by the broth microdilution methodology, according to CLSI procedure (formerly NCCLS, Ref. 11) by using final bacterial inocula of 1-5×10^5 CFU/mL. Assays were performed in sterile 96-well microtiter plates with round bottom wells (Corning Costar). Plates were incubated at 37° C. and read after 20-24 h. MIC was defined as the lowest drug concentration causing complete suppression of visible bacterial growth. All compounds were dissolved in (5% v/v DMSO).
All natural aminoacids have been divided into three groups based on their chemical-physical properties. A total amount of 27 minilibraries, each one containing six peptide in equimolar amounts, were obtained and assayed against E. coli ATCC 25922 as reference strain. MIC (Minimum Inhibitory Concentration) is defined as the lowest concentration inhibiting 100% of visible growth.

[2] = test system: Pseudomonas aeruginosa ATCC 27853; assay: MIC by broth microdilution, P. aeruginosa reference strain; format: cell-based
Description: as §1
(§2) These peptides were synthesized individually, in order to assay the activity of each sequence.

[3] = test system: Klebsiella pneumoniae ATCC 10031; assay: MIC by broth microdilution, K. pneumoniae reference strain; format: cell-based
Description: as §1, §2

[4] = test system: Acinetobacter baumannii; format: cell-based
Description: as §1
(§3) These compounds were tested against a large panel of Gram-negative clinical isolates and the relative MIC values were reported in Table 5 (parts 1-3)

[5] = test system: Acinetobacter iwoffi; format: cell-based
Description: as §1, §3

[6] = test system: Enterobacter cloacae; format: cell-based
Description: as §1, §3

[7] = test system: Escherichia coli; format: cell-based
Description: as §1, §3

[8] = test system: Klebsiella oxytoca; format: cell-based
Description: as §1, §3

[9] = test system: Klebsiella pneumoniae; format: cell-based
Description: as §1, §3

[10] = test system: Proteus mirabilis; format: cell-based
Description: as §1, §3

[11] = test system: Pseudomonas aeruginosa; format: cell-based
Description: as §1, §3

[12] = test system: Serratia marcescens; format: cell-based
Description: as §1, §3

[13] = test system: Stenotrophomonas maltophilia; format: cell-based
Description: as §1, §3

[14] = test system: Shigella; assay: MIC vs clinical isolates, Shigella; format: cell-based; conditions: Shigella strain ND024108
Description: as §1, §3

[15] = test system: E. coli EC47; format: cell-based, Escherichia coli
Description: Test and reference compounds, ID24 and colistin sodium methanesufonate (CMS) respectively, were dissolved in 0.1 M phosphate-buffered saline pH 6.9, at the required drug concentrations. Solutions were made just before administration, and stored at 4° C. until the end of scheduled treatments, ID24 MIC value on E. coli EC47 strain is 2 ug/mL [MIC was determined by the broth microdilution method in Muller Hinton medium (NCCLS guidelines), using bacterial inoculum of approximately 10^5 CFU/mL].

[16] = In vitro cytotoxicity, MTT dye reduction assay, HeLa; format: cell-based; conditions: human, HeLa cells (human epithelial carcinoma)
Description: (§4) HeLa (Human epithelial carcinoma cell line), HepG2 (Human hepatocellular liver carcinoma cell line) and HaCat (human keratinocyte) were grown to confluence and then plated at 20,000, 12,500 and 30,000 cells per well (the optimal cell count for each cell line has been previously determined). After 24 hours, ID24 in DMEM without FBS was added at concentration ranging from 800 and 100 ug/ml. As positive controls 100 uL of cells washed with medium without serum that represent 100% viability and, as negative, 100 uL medium without serum were also added. After 24 hours of incubation at 37° C. in a 5% v/v CO2 atmosphere, 10 ul MTT Reagent [3-(4,5-dimethylthiazol-2-yl)-2,5-diphenyl […] bromide, final concentration 0.5 mg/mL) was added to each well and incubated for 2 to 4 hours. Solubilization of formazan, formed by metabolic reduction of MTT, was obtained using the stop mix solution (10% w/v sodium dodecyl sulphate, 45% v/v dimethyl formamide, adjusted to pH 4.5 with glacial acetic acid). The plates were read in a microplate spectrophotometer. (Biorad, Benchmark plus). Cultures exposed to ID24 or exposed to the medium alone were measured spectrophotometrically at dual wave-length (565-650 nm). The experiment was carried out in three replicates.

[17] = In vitro cytotoxicity, MTT dye reduction assay, HepG2; format: cell-based; conditions: human, HepG2 cells (human hepatocellular liver carcinoma)
Description: as §4

[18] = In vitro cytotoxicity, MTT dye reduction assay, HaCat; format: cell-based; conditions: human, HaCat cells (human keratinocytes)
Description: as §4

[19] = test system: P. aeruginosa ATCC 27853 24-hours biofilm; format: cell-based, Pseudomonas aeruginosa; conditions: ATCC 27853, 4 h
Description: An exponential phase inoculum of Pseudomonas aeruginosa ATCC 27853 of approximately 1×10^7 CFU/mL was poured into a reagent reservoir of Innovotech plates for MBEC™ High-throughput assay (Innovotech Inc., Edmonton, Canada). 22 mL of inoculum were added to the trough and the peg lid was placed onto. The device was placed on the shaking incubator at 80 rpm in a humidified box at 37° C.
After 24 hours of incubation, the pegs were rinsed into a plate containing 200 uL of physiological solution to remove loosely adherent planktonic cells from the biofilm and then were put in a microplate containing 200 uL of different antibiotic solutions serially diluted in TSB.
Following 4 hours of contact and incubation at 37° C. on the shaking incubator, the peg lid was removed from the trough and submersed in a rinse plate for 2 minutes.
Then a new microtitre with saline solution containing the sample pegs was put in the tray of the ultrasonic cleaner and sonicated for 30 minutes to disrupt biofilm from the surface of the 96 pegs.
Duplicate 0.01 or 0.005 mL aliquots of ten fold serial dilution of each well, were spread on MHA plate and colonies were read for viable cell counting after 24 hours of incubation.

[20] = In vivo acute toxicity; parameters: species or system CD1 mice; conditions: for symptoms and behavioural alterations (Irwin Test): female CD1 mice
Description: 9-10 weeks female CD1 mice (Charles River Lab. Italia s.r.l. Via Indipendenza, 11-23885 Calco (LC), Italy), weighing on average 28.23 g on the day of experiment were used. Mice were housed for 3 days in a temperature and humidity controlled room before starting experiment, and were fed with standard laboratory chow and water ad libitum.
ID24 was dissolved and sonicated in 0.9% w/v NaCl sterile solution (Sigma-Aldrich) for human administration at the dose concentrations 20 and 40 mg/kg. Compound preparation was conducted just before administration.
Two doses of ID24 were administered with a single intraperitoneal injection to mice: 20 mg/kg and 40 mg/kg. Five animals were treated with each dose of antibiotic. Adverse symptoms were monitored daily for 7 days after injection.
Survivals and clinical/behavioural signs were recorded daily for 14 days.
Main behavioural parameters and clinical signs provided by Irwin Test (Ref. 13).

[21] = test system: Staphylococcus aureus ATCC 25923
Description: as §1, §2

[22] = test system: whole blood; format: cell-based
Description: Whole blood was collected in a sterile tube with a 4% w/v sodium citrate solution (in a 1:10 ratio sodium citrate:whole blood) and conserved in ice. Serial dilutions of ID24 (1 mg/mL to 62.5 ug/mL) were added to whole blood in a ratio 1:1 or 1:10. The haemolytic potential was expressed relative to saponine, added in the same ratio, considered as 100% haemolysis. The negative control was whole blood in physiologic solution, which gave minimal lysis. 100 uL aliquots of each suspension were added in sterile 96-well microtiter plates (Nunc) in triplicate. The plates were incubated at 37° C. for 30 minutes.
Subsequently, the suspension were pelletted by centrifugation at 1000 g for 10 minutes at 4° C. One hundred microliters of supernatant from each well was transferred accordingly to a new 96-well microtiter plate, and the amount of haemoglobin released into the supernatant was determined by reading the absorbance at 560 nm.
In Table 8, haemolysis percentages of different amounts of ID24 in a 1:1 ratio with whole blood are listed, while in Table 9 haemolysis percentages of different amounts of ID24 in a 1:10 ratio with whole blood are reported. The amount of haemoglobin released into the supernatant was determined by reading the absorbance at 560 nm.

[23] = IP administration, up to the highest dose of 40 mg/kg

Molecule	MIC (ug/mL) E. coli ([1]; Table 4) [µg/mL]	MIC (ug/mL) P. aeruginosa ([2]; Table 4) [µg/mL]	MIC Range [4] [µg/mL]	MIC [5] [µg/mL]	MIC Range [6] [µg/mL]	MIC Range [7] [µg/mL]	MIC Range [8] [µg/mL]	MIC Range [9] [µg/mL]	MIC [10] [µg/mL]	MIC Range [10] [µg/mL]	MIC Range [11] [µg/mL]	MIC [12] [µg/mL]	MIC Range [13] [µg/mL]	MIC [14] [µg/mL]	other results
CC[C@H](C)[C@H](NC(=O)[C@H](CCCCN)NC(=O)[C@H](CCCCN)NC(=O)[C@@H](N)Cc1c[nH]c2ccccc12)C(=O)N[C@@H](CCCNC(=N)N)C(=O)N[C@H](C(=O)N[C@@H](CCCNC(=N)N)C(=O)N[C@@H](CC(C)C)C(=O)N[C@@H](CO)C(=O)N[C@@H](C)C(=O)NCCCC[C@H](NC(=O)[C@H](C)NC(=O)[C@H](CO)NC(=O)[C@H](CC(C)C)NC(=O)[C@H](CCCNC(=N)N)NC(=O)[C@@H](NC(=O)[C@H](CCCNC(=N)N)NC(=O)[C@@H](NC(=O)[C@H](CCCCN)NC(=O)[C@H](CCCCN)NC(=O)[C@@H](N)Cc1c[nH]c2ccccc12)[C@@H](C)CC)C(C)C)C(=O)NCCC(N)=O)C(C)C [ID18, (H-W-KKIRVRLSA)2-Lys-β-Ala-NH2] (I: H-WKKIRVRLSAK[βAla]-NH2 / II: H-WKKIRVRLSA; amide I:11-II:C)	4 (≈ 1.49 µM)	32 (≈ 11.9 µM)	8 to 16	16 (≈ 5.94 µM)	4 to 32	2 to 32	32 (≈ 11.9 µM)	4 to 16	>128	>128	8 to 16	>128	8 to 32	4 (≈ 1.49 µM)	MIC (ug/mL) K. pneumoniae ([3]; Table 4): 32 µg/mL (≈ 11.9 µM); MIC [8]: 32 µg/mL (≈ 11.9 µM)
CC[C@H](C)[C@H](NC(=O)[C@H](CCCCN)NC(=O)[C@H](CCCCN)NC(=O)[C@@H](N)Cc1c[nH]c2ccccc12)C(=O)N[C@@H](CCCNC(=N)N)C(=O)N[C@H](C(=O)N[C@@H](CCCNC(=N)N)C(=O)N[C@@H](CC(C)C)C(=O)N[C@@H](CO)C(=O)N[C@@H](C)C(=O)NCCCC[C@H](NC(=O)[C@H](C)NC(=O)[C@H](CO)NC(=O)[C@H](CC(C)C)NC(=O)[C@H](CCCNC(=N)N)NC(=O)[C@@H](NC(=O)[C@H](CCCNC(=N)N)NC(=O)[C@@H](NC(=O)[C@H](CCCCN)NC(=O)[C@H](CCCCN)NC(=O)[C@@H](N)Cc1c[nH]c2ccccc12)[C@@H](C)CC)C(C)C)C(=O)NCCCCCCCC(N)=O)C(C)C [ID24, (H-W-KKIRVRLSA)2-Lys-8-Aoa-NH2] (I: H-WKKIRVRLSAK[Aoc]-NH2 / II: H-WKKIRVRLSA; amide I:11-II:C)	4 (≈ 1.45 µM)	32 (≈ 11.6 µM)	8 to 16	32 (≈ 11.6 µM)	4 to 16	4 to 32	16 to 32	4 to 16	>128	>128	8 to 16	>128	8 to 32	4 (≈ 1.45 µM)	MIC value on E. coli EC47 strain [15]: 2 µg/mL (≈ 0.724 µM); CC50 at 24 h [16]: 156 nM; CC50 at 24 h ([16]; HeLa, 24 hours incubation, MTT, read-out: CC50 ID24): 430 µg/mL; CC50 at 24 h [17]: 78 nM; CC50 at 24 h ([17]; HepG2, 24 hours incubation, MTT, read-out: CC50 ID24): 215 µg/mL; CC50 at 24 h [18]: 160 nM; CC50 at 24 h ([18]; HaCat, 24 hours incubation, MTT, read-out: CC50 ID24): 442 µg/mL; percentage of inhibition of bacteria biofilm [19]: 88.7-99.9%; symptoms and behavioural alterations (Irwin Test) ([20]; 20 mg/kg single intraperitoneal injection): no behavioural alterations; symptoms and behavioural alterations (Irwin Test) ([20]; 40 mg/kg single intraperitoneal injection): no behavioural alterations; adverse symptoms [20, 23]: No adverse symptoms; deaths [20, 23]: no deaths
H-YKKIRVRLSA-OH [ID7, H-Y-KKIRVRLSA-OH]	–	–	–	–	–	–	–	–	–	–	–	–	–	–	MIC (ug/mL) E. coli ([1]; ATCC 25922): 256 µg/mL; MIC (ug/mL) P. aeruginosa ([2]; ATCC 27853): 256 µg/mL; MIC (ug/mL) K. pneumoniae ([3]; ATCC 10031): >512 µg/mL; MIC (ug/mL) S. aureus [21]: >512 µg/mL
saponine	–	–	–	–	–	–	–	–	–	–	–	–	–	–	Haemolysis % [22]: 100%; Haemolysis, % [22]: 100%
